Read-outs that look alike come from different tables or passages of the source.
Assays:
[1] = Solubility and gelling of salicylic acid in Poloxamer 188 solution; format: physicochemical; details: 0.50 gr. in 12.5 gr. of 20% Poloxamer 188
Description: In both vials, 1 & 2, there are 12.5 gr. of 20% Poloxamer 188/purified water stock solution (2.5 gr. Poloxamer 188+10 gr. purified water).

[2] = USP 29, cited from earlier work
[3] = Microscope observation for crystals of active agent; format: physicochemical; details: Poloxamer 407 at 15% concentration in the formulation
Description: Poloxamer 407 functions as co-solubilizer ingredient of sodium diclofenac.

[4] = Solubility of 3% sodium diclofenac in Poloxamer 407 in water; format: physicochemical; details: 3% in 5, 7 and 10 percent of Poloxamer in water, heated to 75° C. and cooled
Method: All 3 concentrations were heated to 75° C. to dissolution and cooled.

Structure (SMILES)	state of Poloxamer 188 solution with doubled salicylic acid concentration [1]	solubility in water ([2]; 20° C.) [%]	solubility in water [2] [gr. in 460 gr.]	crystals under the microscope [3]	crystals after 24 h [4]
O=C(O)c1ccccc1O [Salicylic acid]	viscous gel with no fluidity	~0.2	1		
O=C(O)Cc1ccccc1Nc1c(Cl)cccc1Cl [sodium diclofenac]				crystals were not observed	crystals were visually observed
